The supplement of paper PMC11451515

Tested on: NOMO1
Test: cell viability relative to DMSO control; higher = less cytotoxic
Conditions: 48 h
Summary of the method: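 NOMO1 or SEM (500 cells/well) or P12-Ichikawa (1000 cells/well) leukemia cells were adapted for at least four passages in each medium. They were seeded in 1536-well plates (5 μl) and pin-dosed with library compounds in DMSO over an 11-point threefold series, 47 μM to 0.79 nM. CellTiter-Glo One luminescence was read after 48 h at 37°C. Viability is the per-plate percentage relative to DMSO wells, with cell-free wells as background.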

[1] = HPLM + 10% dialyzed FBS, 0.000781 µM
[2] = HPLM + 10% dialyzed FBS, 0.00234 µM
[3] = HPLM + 10% dialyzed FBS, 0.00702 µM
[4] = HPLM + 10% dialyzed FBS, 0.0211 µM
[5] = HPLM + 10% dialyzed FBS, 0.0632 µM
[6] = HPLM + 10% dialyzed FBS, 0.19 µM
[7] = HPLM + 10% dialyzed FBS, 0.569 µM
[8] = HPLM + 10% dialyzed FBS, 1.71 µM
[9] = HPLM + 10% dialyzed FBS, 5.12 µM
[10] = HPLM + 10% dialyzed FBS, 15.4 µM
[11] = HPLM + 10% dialyzed FBS, 46.1 µM
[12] = RPMI 5 mM glucose + 10% FBS, 0.000781 µM
[13] = RPMI 5 mM glucose + 10% FBS, 0.00234 µM
[14] = RPMI 5 mM glucose + 10% FBS, 0.00702 µM
[15] = RPMI 5 mM glucose + 10% FBS, 0.0211 µM
[16] = RPMI 5 mM glucose + 10% FBS, 0.0632 µM
[17] = RPMI 5 mM glucose + 10% FBS, 0.19 µM
[18] = RPMI 5 mM glucose + 10% FBS, 0.569 µM
[19] = RPMI 5 mM glucose + 10% FBS, 1.71 µM
[20] = RPMI 5 mM glucose + 10% FBS, 5.12 µM
[21] = RPMI 5 mM glucose + 10% FBS, 15.4 µM
[22] = RPMI 5 mM glucose + 10% FBS, 46.1 µM
[23] = RPMI 5 mM glucose + 10% dialyzed FBS, 0.000781 µM
[24] = RPMI 5 mM glucose + 10% dialyzed FBS, 0.00234 µM
[25] = RPMI 5 mM glucose + 10% dialyzed FBS, 0.00702 µM
[26] = RPMI 5 mM glucose + 10% dialyzed FBS, 0.0211 µM
[27] = RPMI 5 mM glucose + 10% dialyzed FBS, 0.0632 µM
[28] = RPMI 5 mM glucose + 10% dialyzed FBS, 0.19 µM
[29] = RPMI 5 mM glucose + 10% dialyzed FBS, 0.569 µM
[30] = RPMI 5 mM glucose + 10% dialyzed FBS, 1.71 µM
[31] = RPMI 5 mM glucose + 10% dialyzed FBS, 5.12 µM
[32] = RPMI 5 mM glucose + 10% dialyzed FBS, 15.4 µM
[33] = RPMI 5 mM glucose + 10% dialyzed FBS, 46.1 µM

| Structure (SMILES) | cell viability [1] [%] | cell viability [2] [%] | cell viability [3] [%] | cell viability [4] [%] | cell viability [5] [%] | cell viability [6] [%] | cell viability [7] [%] | cell viability [8] [%] | cell viability [9] [%] | cell viability [10] [%] | cell viability [11] [%] | cell viability [12] [%] | cell viability [13] [%] | cell viability [14] [%] | cell viability [15] [%] | cell viability [16] [%] | cell viability [17] [%] | cell viability [18] [%] | cell viability [19] [%] | cell viability [20] [%] | cell viability [21] [%] | cell viability [22] [%] | cell viability [23] [%] | cell viability [24] [%] | cell viability [25] [%] | cell viability [26] [%] | cell viability [27] [%] | cell viability [28] [%] | cell viability [29] [%] | cell viability [30] [%] | cell viability [31] [%] | cell viability [32] [%] | cell viability [33] [%] |
| --- | --- | --- | --- | --- | --- | --- | --- | --- | --- | --- | --- | --- | --- | --- | --- | --- | --- | --- | --- | --- | --- | --- | --- | --- | --- | --- | --- | --- | --- | --- | --- | --- | --- |
| COC(=O)Nc1ccc(-c2nc(N3CCOCC3)c3cnn(C4CCN(Cc5cccnc5)CC4)c3n2)cc1 | 117 | 117 | 132 | 108 | 88.6 | 76.4 | 70.3 | 70.6 | 26.3 | 19.4 | 9.7 | 106 | 117 | 119 | 105 | 110 | 92.4 | 88.7 | 82.6 | 45.4 | 32.4 | 17.6 | – | – | – | – | – | – | – | – | – | – | – |
| Nc1nc(Nc2ccc([S+](N)(=O)[O-])cc2)nn1C(=O)c1c(F)cccc1F | 94.7 | 97.4 | 90.6 | 113 | 105 | 109 | 102 | 107 | 120 | 66.1 | 7.01 | 94.7 | 87.8 | 107 | 94 | 94.7 | 99.3 | 93.8 | 87.2 | 93.2 | 50.4 | 8.21 | 98.7 | 86.1 | 100 | 91.5 | 86.9 | 92.7 | 93.1 | 104 | 84.4 | 49.5 | 5.65 |
| COC/1=C/[C@@H]2[C@@H]3CC4=C(C(=C(OC)C=C4)O)[C@]2(CCN3C)CC1=O | 117 | 123 | 151 | 147 | 151 | 135 | 147 | 161 | 135 | 131 | 113 | 118 | 124 | 135 | 165 | 144 | 148 | 148 | 139 | 153 | 141 | 126 | – | – | – | – | – | – | – | – | – | – | – |
| CN[C@H]1[C@H](O[C@@H]2[C@H](O[C@@H]3[C@@H](O)[C@@H](O)[C@@H](NC(=N)N)[C@@H](O)[C@H]3NC(=N)N)O[C@H](C)[C@@]2(O)C=O)O[C@@H](CO)[C@@H](O)[C@H]1O | 117 | 115 | 118 | 111 | 130 | 120 | 101 | 96.1 | 89 | 66.9 | 23.7 | 109 | 113 | 112 | 109 | 112 | 104 | 103 | 111 | 96.6 | 101 | 26.1 | 106 | 107 | 103 | 113 | 114 | 105 | 102 | 109 | 105 | 87.1 | 26.2 |
| CCNC(=O)Nc1ccc(-c2nc3c(c(N4CCOC[C@@H]4C)n2)CCN(C2COC2)C3)cc1 | 117 | 130 | 102 | 119 | 101 | 95.9 | 88.6 | 66.5 | 57.6 | 44.5 | 40.5 | 109 | 102 | 105 | 107 | 105 | 94.6 | 98.9 | 84.6 | 67.3 | 52.8 | 46.6 | 108 | 115 | 119 | 102 | 98.4 | 97.2 | 101 | 66.7 | 66.5 | 52.8 | 45.4 |
| CO[C@H]1/C=C/O[C@@]2(C)Oc3c(C)c(O)c4c(O)c(c(/C=N\N5CCN(C6CCCC6)CC5)c(O)c4c3C2=O)NC(=O)/C(C)=C\C=C\[C@H](C)[C@H](O)[C@@H](C)[C@@H](O)[C@@H](C)[C@H](OC(C)=O)[C@@H]1C | 119 | 123 | 104 | 116 | 90.5 | 93.4 | 79.3 | 52.3 | 28.9 | 6.78 | 0.815 | 123 | 110 | 111 | 107 | 109 | 76.5 | 75.1 | 51.8 | 17.9 | 3.98 | 0.906 | 100 | 98.4 | 95.2 | 80.2 | 83.4 | 79.3 | 64.7 | 52.9 | 24.1 | 3.08 | 0.433 |
| CN(c1nccc(=O)[nH]1)C1CCN(c2nc3ccccc3n2Cc2ccc(F)cc2)CC1 | 90 | 104 | 116 | 117 | 128 | 124 | 116 | 120 | 105 | 111 | 99.1 | 104 | 101 | 112 | 104 | 114 | 115 | 130 | 126 | 117 | 108 | 105 | 109 | 108 | 105 | 121 | 114 | 116 | 122 | 121 | 114 | 131 | 90.8 |
| O=C(O)[C@@H](c1ccc(OCc2ccc3ccccc3n2)cc1)C1CCCC1 | 118 | 114 | 118 | 126 | 106 | 119 | 115 | 119 | 110 | 109 | 90.5 | 104 | 117 | 107 | 109 | 125 | 111 | 104 | 121 | 113 | 102 | 120 | 119 | 101 | 122 | 113 | 123 | 119 | 103 | 108 | 106 | 100 | 95.4 |
